Laboratory results as given in paper PMC9374667 (Communications Biology, 2022).
Values after ≈ are worked out from the molar mass of the structure shown. Values joined by “and” are separate entries in the source; they are usually repeats but may differ in a detail not shown here. Identical values can stand only once.

Tests used:
[1] = pH of the solution after 24 hours of the dissolution test; format: physicochemical
Method: Solubilities were determined by adding excess sample to 30 mL different mediums, such as HCl solution, acetate buffer, phosphate buffer, SGF, FaSSIF and FeSSIF. The configuration of various buffer solutions is shown in Supplementary Table 2. After being shaken at 400 rpm at 37 °C for 0.5, 1, 2, and 24 h, 0.3 mL of suspension was sampled and centrifuged at 14,000 rpm for 8 min to isolate mother liquor, and then analyzed by HPLC after dilution. All samples were analyzed in triplicate. […]
into a 1000 mL flask followed by addition of about 800 mL of deionized water. The mixture is stirred until all solids are dissolved.
Add about 100 mL of 0.1 N HCl, check pH value with a pH meter and adjust the pH to 2.0 with HCl (1 N) or NaOH (1 N). Then dilute to the volume with deionized water.
* 1N sodium hydroxide: Weigh 8 g NaOH in a 200 mL plastic volumetric flask, add deionized water to volume and mix well. […]
phosphate and 3.093 g sodium chloride in a 500 mL volumetric flask, add about 0.450 L deionized water, and adjust the pH to 6.5 with 1N sodium hydroxide or 1 N hydrochloric acid. Make up to volume (0.5 […]
Step 2: Place and dissolve 1.120 g FaSSIF/FeSSIF/FaSSGF instant powder with 0.250 L of buffer (from step 1) in a 500 mL volumetric flask, then add buffer (from step 1) to volume, and mix well. […]
g sodium chloride in a 500 mL volumetric flask, add about 0.450 L deionized water, and adjust the pH to 5.0 with 1 N sodium hydroxide or 1 N hydrochloric acid. Make up to volume (500 mL) with
Step 2: Place and dissolve 5.600 g FaSSIF/FeSSIF/FaSSGF instant […]
0.750 L deionized water. Make up to volume (1000 mL) with deionized water and placed overnight.
(1 picture or pasted object on this page, not shown here)

db/db mice [2] = assay: HE staining of epididymal adipose tissue, adipocyte size; format: in vivo; conditions: BJ 75 and 150 mg/kg, BBR 150 mg/kg, Ibu 150 mg/kg
Method: The adipose tissue was fixed overnight in 4% paraformaldehyde, then embedded in paraffin and cut into 5 µm thick slices. Tissue sections were stained with hematoxylin and eosin (H&E). For immunohistochemistry, sections were incubated with primary antibodies against F4/80 (1:100 dilution) diluted in the blocking solution at 4 °C overnight. The tissue sections were then incubated with the horseradish peroxidase (HRP)-conjugated secondary antibody at room temperature for 2 h. Finally, the sections were developed with diaminobenzidine (DAB) and counterstained with hematoxylin. Images were obtained under a microscope. To quantify the F4/80-positive macrophages, two random fields per sample were analyzed by Image J software. The IHC profiler plugin of ImageJ was used to calculate the F4/80 positive area.

db/db mice [3] = assay: Weekly fasting glucose levels of db/db mice; format: in vivo; conditions: 150mg/kg
Method: The lean wild type control and the db/db control mice were given equal vehicle volume (0.5% CMC-Na solution). All mice were monitored for food intake, body weight, and fasting blood glucose during the 35-day trial. Glucose tolerance test (GTT) and insulin resistance test (ITT) were performed at 4 and 5 weeks of treatment, respectively. Metabolic analysis was performed at 5 weeks of treatment. At the end of the study, blood samples were taken through the retroorbital venous sinus of mice, fat depots (brown fat, inguinal subcutaneous fat, epididymal fat, perirenal fat and mesenteric fat depot) were dissected, weighed, and immediately frozen in liquid nitrogen and stored at −80 °C until required. Weight of fat depots are expressed in percentage (fat depots weight /bodyweight * 100%).

db/db mice [4] = assay: Insulin tolerance test (ITT), AUC and initial slope; format: in vivo; conditions: db/db mice, IBU 150mg/kg
Method: (§1) Mice were fasted for 4 h for insulin resistance test and intraperitoneally injected with 1 unit/kg of insulin. Blood glucose levels were measured from the tail vein blood at 0, 15, 30, 45, 60, 90, and 120 min after injection. Plasma insulin levels were measured using an ultrasensitive mouse insulin ELISA kit (Nanjing Jiancheng Bioengineering Institute, Nanjing, China).

[5] = In vitro dissolution studies: dynamic solubility in buffers and simulated biological fluids; format: physicochemical; set-up: BBR dissolved in CMC-Na (Figure S7a) / Ibu dissolved in CMC-Na (Figure S7b): unit not given here; conditions: mean; for solubility at 0.5 h / solubility at 1 h / solubility at 2 h / solubility at 24 h: 37 °C
Method: Solubilities were determined by adding excess sample to 30 mL different mediums, such as HCl solution, acetate buffer, phosphate buffer, SGF, FaSSIF and FeSSIF. The configuration of various buffer solutions is shown in Supplementary Table 2. After being shaken at 400 rpm at 37 °C for 0.5, 1, 2, and 24 h, 0.3 mL of suspension was sampled and centrifuged at 14,000 rpm for 8 min to isolate mother liquor, and then analyzed by HPLC after dilution. All samples were analyzed in triplicate.

db/db mice [6] = assay: Fasting serum insulin levels (ELISA); format: in vivo; conditions: 150mg/kg, individual animals
Method: as §1

[7] = aqueous buffer, thermodynamic from solid, Acetate buffer (pH 4.5)
[8] = fasted state simulated intestinal fluid (FaSSIF-V1), FaSSIF-V1 (pH 6.5)
[9] = fed state simulated intestinal fluid (FeSSIF-V1), thermodynamic from solid, FeSSIF-V1 (pH 5.0)
[10] = simulated gastric fluid (SGF), SGF (pH 2.0)

## CC(C)Cc1ccc(C(C)C(=O)O)cc1 (centres unmarked) [Ibu, Ibuprofen, reference compound]
[1]; Acetate buffer, blank vehicle 4.54
  pH of the solution after 24 hours: 4.56
[1]; CMC-Na, blank vehicle 6.51
  pH of the solution after 24 hours: 5.57
[1]; FaSSIF-v1, blank vehicle 6.51
  pH of the solution after 24 hours: 6.04
[1]; FeSSIF-v1, blank vehicle 5.04
  pH of the solution after 24 hours: 5.05
[1]; HCl solution, blank vehicle 1.08
  pH of the solution after 24 hours: 1.07
[1]; Phosphate buffer, blank vehicle 6.84
  pH of the solution after 24 hours: 6.60
[1]; SGF, blank vehicle 2.03
  pH of the solution after 24 hours: 2.00
db/db mice [2]
  Size of adipocytes in eWAT compared with vehicle: not significantly different
db/db mice [3]; week 0, individual animals
  Blood Glucose (Figure S9n): 16.0 mmol/L and 15.1 mmol/L and 15.0 mmol/L and 16.2 mmol/L and 11.3 mmol/L and 15.2 mmol/L
db/db mice [3]; week 1, individual animals
  Blood Glucose (Figure S9n): 16.3 mmol/L and 19.3 mmol/L and 21.7 mmol/L and 13.6 mmol/L and 13.3 mmol/L and 14.9 mmol/L
db/db mice [3]; week 2, individual animals
  Blood Glucose (Figure S9n): 20.7 mmol/L and 21.3 mmol/L and 19.0 mmol/L
db/db mice [3]; week 3, individual animals
  Blood Glucose (Figure S9n): 23.3 mmol/L and 18.9 mmol/L and 18.7 mmol/L and 22.0 mmol/L
db/db mice [3]; week 4, individual animals
  Blood Glucose (Figure S9n): 22.4 mmol/L and 22.3 mmol/L and 22.8 mmol/L
db/db mice [3]; week 5, individual animals
  Blood Glucose (Figure S9n): 23.6 mmol/L and 23.0 mmol/L
db/db mice [4]; times 0, individual animals (Figure S9p/S9r)
  Blood Glucose: 22.4 mmol/L and 22.3 mmol/L and 22.8 mmol/L
db/db mice [4]; times 15, individual animals (Figure S9p/S9r)
  Blood Glucose: 24.0 mmol/L
db/db mice [4]; times 30, individual animals (Figure S9p/S9r)
  Blood Glucose: 19.6 mmol/L and 21.3 mmol/L and 20.3 mmol/L and 18.8 mmol/L
db/db mice [4]; times 45, individual animals (Figure S9p/S9r)
  Blood Glucose: 13.8 mmol/L and 18.5 mmol/L and 19.5 mmol/L and 17.5 mmol/L and 15.3 mmol/L and 15.6 mmol/L
db/db mice [4]; times 60, individual animals (Figure S9p/S9r)
  Blood Glucose: 15.0 mmol/L and 13.2 mmol/L and 20.4 mmol/L and 15.7 mmol/L
db/db mice [4]; times 90, individual animals (Figure S9p/S9r)
  Blood Glucose: 15.6 mmol/L and 21.3 mmol/L and 21.6 mmol/L and 14.9 mmol/L and 15.0 mmol/L
db/db mice [4]; times 120, individual animals (Figure S9p/S9r)
  Blood Glucose: 18.2 mmol/L and 22.9 mmol/L and 18.8 mmol/L and 16.9 mmol/L and 15.3 mmol/L
[5]; Acetate buffer (pH 4.5)
  solubility at 0.5 h: 89.5 µg/mL (≈ 0.434 mM)
  solubility at 1 h: 103 µg/mL (≈ 0.497 mM)
[5]; time 0.5
  Ibu dissolved in CMC-Na (Figure S7b): 0.09941
[5]; time 1
  Ibu dissolved in CMC-Na (Figure S7b): 0.1517
[5]; time 24
  Ibu dissolved in CMC-Na (Figure S7b): 0.385
[5]; Phosphate buffer (pH 6.8)
  solubility at 0.5 h: 2650 µg/mL (≈ 12.9 mM)
  solubility at 1 h: 2680 µg/mL (≈ 13 mM)
[5]; [7]
  solubility at 2 h: 124 µg/mL (≈ 0.603 mM)
  solubility at 24 h: 125 µg/mL (≈ 0.605 mM)
[5]; aqueous buffer, thermodynamic from solid, Phosphate buffer (pH 6.8)
  solubility at 2 h: 2900 µg/mL (≈ 14.1 mM)
[5]; fasted state simulated intestinal fluid (FaSSIF-V1), thermodynamic from solid, FaSSIF-V1 (pH 6.5)
  solubility at 24 h: 1480 µg/mL (≈ 7.16 mM)
[5]; [8]
  solubility at 0.5 h: 1660 µg/mL (≈ 8.07 mM)
  solubility at 1 h: 1610 µg/mL (≈ 7.8 mM)
  solubility at 2 h: 1610 µg/mL (≈ 7.81 mM)
[5]; [9]
  solubility at 0.5 h: 798 µg/mL (≈ 3.87 mM)
  solubility at 1 h: 780 µg/mL (≈ 3.78 mM)
  solubility at 2 h: 890 µg/mL (≈ 4.31 mM)
  solubility at 24 h: 705 µg/mL (≈ 3.42 mM)
[5]; [10]
  solubility at 0.5 h: 51.9 µg/mL (≈ 0.252 mM)
  solubility at 1 h: 70.4 µg/mL (≈ 0.341 mM)
  solubility at 2 h: 77.3 µg/mL (≈ 0.375 mM)
  solubility at 24 h: 59.9 µg/mL (≈ 0.29 mM)
db/db mice [6]
  Insulin: 16.07 mIU/L and 14.41 mIU/L and 14.02 mIU/L and 15.71 mIU/L and 12.42 mIU/L and 14.35 mIU/L
